Data as given in ChEMBL document CHEMBL1201862, “PubChem BioAssay data set” (2004).
Activity calls are given as the source filed them.

What was measured:
[1] = alpha-synuclein stem-loop luciferase translation blockers – H4 neuroglioma cells, luminescence, confirmation (AID 1988); format: functional, cell-based
[2] = luciferase reporter signal suppression in cells – H4 neuroglioma cells, luminescence, dose response (AID 1990); format: functional, cell-based
[3] = cells; format: functional, cell-based
[4] = alpha-synuclein stem-loop translation blockers – luminescence, H4 neuroglioblastoma cells, dose confirmation, confirmation (AID 2454); format: functional, cell-based;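 further: H4 neuroglioblastoma cells carrying an alpha-synuclein 5'UTR luciferase reporter; potency for inhibition of the luciferase signal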
[5] = luciferase reporter signal reduction – luminescence, H4-C neuroglioblastoma cells, dose response (AID 2458); format: functional, cell-based;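 further: H4 neuroglioblastoma cells stably carrying a luciferase reporter gene fusion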
[6] = HEK-293T viability loss, compound-treated – cell-based, uHTS hits, cytotoxicity control for B/T-cell NF-kB inhibitor project, dose response (AID 489019); format: functional;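 further: IC50 reflects cytotoxicity as loss of cell viability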
[7] = tested on: Jurkat; test: blockers of NF-kB activation in T cells – Jurkat, luciferase reporter, luminescence, B- and T-cell, dose response (AID 489004); format: functional, cell-based; settings: Homo sapiens;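 further: NF-kB luciferase reporter Jurkat cells stimulated with PMA plus ionomycin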
[8] = Luminescence Cell-Based Dose Response HTS to Identify Inhibitors of 5'UTR Stem-Loop Driven Prion Protein mRNA Translation in H4 Neuroglioblastoma Cells. [Related pubchem assays: 1827 (Project Summary), 1813 (Primary HTS)]; format: functional
[9] = restored growth of temperature-sensitive Burl-1 yeast – whole organism, S. cerevisiae, Burl-1 ts mutant, luminescence, counter-screen for SUMOylation pathway inhibitor project, dose response (AID 463199); format: functional
[10] = target: Cytochrome P450 2C9 (Homo sapiens, UniProt P11712)
[11] = target: T1, Cytochrome P450 1A2 (Homo sapiens, UniProt P05177);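 further: PubChem cytochrome P450 panel assay, CYP1A2 panel member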
T1 sequence (P05177 whole entry): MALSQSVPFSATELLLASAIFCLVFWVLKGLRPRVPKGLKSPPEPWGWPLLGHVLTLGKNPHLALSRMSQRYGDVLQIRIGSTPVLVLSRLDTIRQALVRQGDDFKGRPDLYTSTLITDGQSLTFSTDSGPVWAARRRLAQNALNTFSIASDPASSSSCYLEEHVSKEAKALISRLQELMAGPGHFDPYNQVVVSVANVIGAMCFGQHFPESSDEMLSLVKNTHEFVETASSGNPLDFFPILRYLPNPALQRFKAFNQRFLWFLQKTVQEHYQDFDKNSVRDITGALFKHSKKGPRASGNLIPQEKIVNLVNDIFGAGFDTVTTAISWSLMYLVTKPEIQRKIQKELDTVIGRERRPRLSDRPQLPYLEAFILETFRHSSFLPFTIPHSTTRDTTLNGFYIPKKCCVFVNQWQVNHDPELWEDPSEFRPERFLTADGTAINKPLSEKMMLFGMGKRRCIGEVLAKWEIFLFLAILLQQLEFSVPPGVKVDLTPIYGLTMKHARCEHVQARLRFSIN

[12] = target: Dual specificity protein phosphatase 6 (Rattus norvegicus, UniProt Q64346); format: functional;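 further: confirmatory in vitro dose-response testing of MKP-3 inhibition; recombinant His-tagged MKP-3 made in E. coli BL21 with OMFP substrate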
[13] = target: Tyrosine-protein phosphatase non-receptor type 7 (Homo sapiens, UniProt P35236); test: redox-active compounds inhibiting HePTP phosphatase – biochemical, fluorescence, mechanism study (AID 2068); format: functional
[14] = target: T2, Dual specificity protein phosphatase 3 (Homo sapiens, UniProt P51452); test: MOA VHR1 Fluorescent secondary assay for identification of redox-state modulating compounds. [Related pubchem assays (depositor defined):AID1654, AID1661, AID1878, AID1957]
[15] = target: T2, Dual specificity protein phosphatase 3; test: SAR VHR1 Fluorescent Assay for In Vitro dose response studies. [Related pubchem assays (depositor defined):AID1654, AID1661, AID1878, AID1992, AID2004, AID2070, AID2085]; format: functional
[16] = target: Hexokinase-1 (Homo sapiens, UniProt P19367); test: SAR analysis of small molecule inhibitors of hexokinase domain containing I (HKDC1) in the hexokinase 1 selectivity assay. [Related pubchem assays (depositor defined):AID493160, AID493190]; format: functional
[17] = target: T3, Hexokinase HKDC1 (Homo sapiens, UniProt Q2TB90); test: SAR analysis of small molecule inhibitors of hexokinase domain containing I (HKDC1). [Related pubchem assays (depositor defined):AID493160, AID493190]; format: functional
T3 sequence (Q2TB90 whole entry): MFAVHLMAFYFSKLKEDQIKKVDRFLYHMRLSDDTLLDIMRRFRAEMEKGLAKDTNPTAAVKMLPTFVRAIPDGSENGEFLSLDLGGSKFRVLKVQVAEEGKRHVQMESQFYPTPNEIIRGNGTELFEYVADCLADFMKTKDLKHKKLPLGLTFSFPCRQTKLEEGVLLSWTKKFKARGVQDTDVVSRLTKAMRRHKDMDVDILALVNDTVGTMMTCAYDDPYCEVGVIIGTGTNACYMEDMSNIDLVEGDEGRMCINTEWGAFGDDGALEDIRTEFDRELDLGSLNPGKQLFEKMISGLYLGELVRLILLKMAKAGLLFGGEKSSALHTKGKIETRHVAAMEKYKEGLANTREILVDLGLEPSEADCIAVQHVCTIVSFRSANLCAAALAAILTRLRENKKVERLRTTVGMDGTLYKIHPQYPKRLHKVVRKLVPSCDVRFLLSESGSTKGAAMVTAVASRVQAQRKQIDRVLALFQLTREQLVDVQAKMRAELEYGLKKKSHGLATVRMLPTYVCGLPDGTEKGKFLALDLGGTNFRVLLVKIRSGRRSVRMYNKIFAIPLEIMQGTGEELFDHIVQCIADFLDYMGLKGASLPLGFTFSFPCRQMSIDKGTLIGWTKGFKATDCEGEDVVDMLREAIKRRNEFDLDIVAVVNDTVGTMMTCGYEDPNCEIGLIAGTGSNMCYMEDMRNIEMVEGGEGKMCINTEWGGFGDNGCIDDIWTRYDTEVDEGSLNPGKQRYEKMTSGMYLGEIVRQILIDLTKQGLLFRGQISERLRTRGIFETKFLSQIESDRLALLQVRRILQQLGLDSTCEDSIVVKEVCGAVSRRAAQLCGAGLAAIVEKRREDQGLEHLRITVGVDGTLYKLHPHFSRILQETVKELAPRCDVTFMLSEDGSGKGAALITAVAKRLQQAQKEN

[18] = T. cruzi infection blockers in NIH3T3 cells – beta-gal luminescence, NIH3T3 host cells, confirmation (AID 2630); format: functional, cell-based; settings: Mus musculus
[19] = Luminescence Cell-Based/Microorganism Confirmation at Dose of Inhibitors of Trypanosoma cruzi Infection. [Related pubchem assays: 1885, 1968 ]; format: functional
[20] = Luminescence Cell-Based Secondary HTS screen to identify cytotoxic compounds of NIH3T3 cells. [Related pubchem assays: 1885, 1968 ]; format: functional
[21] = tested on: NIH3T3; test: NIH-3T3 viability loss with fluconazole – cell-based, Alamar Blue, dry powder, set 3, cytotoxicity control for reversing antifungal drug resistance, dose response (AID 488933); format: functional; settings: Mus musculus
[22] = NIH-3T3 fibroblast cytotoxicity, dose response, cytotoxicity control, cell-based, fluorescence, Alamar Blue, secondary assay (AID 2327); format: functional;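 further: NIH-3T3 mouse fibroblasts cultured with fluconazole at 8 µg/mL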
[23] = target: Serine/threonine-protein phosphatase (Candida dubliniensis (strain CD36 / CBS 7987 / NCPF 3949 / NRRLY-17841) (Yeast), UniProt B9W6M3); test: blockers of CaCl2-induced CDRE-lacZ signaling – S. cerevisiae, luminescence, secondary, dose response (AID 2388); format: functional, cell-based;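 further: yeast reporter cells carrying a calcineurin-responsive lacZ construct stimulated with calcium chloride; luminescent beta-galactosidase reporter signal in whole cells rather than isolated phosphatase activity; potency for inhibition where a drop in reporter signal means calcineurin blockade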
[24] = target: ATP-dependent molecular chaperone HSP82 (Candida albicans (strain WO-1) (Yeast), UniProt C4YTQ8); test: steroid-induced GRE reporter decrease in yeast – S. cerevisiae, luminescence, Hsp90 inhibitor project, dose response (AID 2400); format: functional, cell-based;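 further: beta-galactosidase luminescence from glucocorticoid response element reporter as proxy for Hsp90 function; inhibitor potency where signal loss means Hsp90 inhibition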
[25] = fluconazole-exposed Candida albicans growth modulators – fluorescence, retest, confirmation (AID 2467); format: functional, cell-based
[26] = target: T4, CAAX prenyl protease 2 (Saccharomyces cerevisiae S288c, UniProt Q03530); format: biochemical
T4 sequence (Q03530 whole entry): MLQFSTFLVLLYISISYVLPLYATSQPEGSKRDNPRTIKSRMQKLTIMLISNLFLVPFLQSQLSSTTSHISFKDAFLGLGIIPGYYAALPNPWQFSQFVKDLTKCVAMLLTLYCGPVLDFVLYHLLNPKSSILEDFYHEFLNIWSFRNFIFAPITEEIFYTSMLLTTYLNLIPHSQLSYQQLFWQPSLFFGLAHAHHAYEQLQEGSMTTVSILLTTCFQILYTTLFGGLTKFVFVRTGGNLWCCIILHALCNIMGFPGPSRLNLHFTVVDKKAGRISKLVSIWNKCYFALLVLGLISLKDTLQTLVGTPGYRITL

[27] = tested on: HEK293; test: cells; format: functional, cell-based; settings: Homo sapiens
[28] = target: T5, Nuclear receptor subfamily 0 group B member 1 (Homo sapiens, UniProt P51843); test: Luminescence-based cell-based high throughput dose response assay for inhibitors of the orphan nuclear receptor subfamily 0, group B, member 1 (DAX1; NR0B1). [Related pubchem assays (depositor defined):AID504766, AID504790]; format: functional
T5 sequence (P51843 whole entry): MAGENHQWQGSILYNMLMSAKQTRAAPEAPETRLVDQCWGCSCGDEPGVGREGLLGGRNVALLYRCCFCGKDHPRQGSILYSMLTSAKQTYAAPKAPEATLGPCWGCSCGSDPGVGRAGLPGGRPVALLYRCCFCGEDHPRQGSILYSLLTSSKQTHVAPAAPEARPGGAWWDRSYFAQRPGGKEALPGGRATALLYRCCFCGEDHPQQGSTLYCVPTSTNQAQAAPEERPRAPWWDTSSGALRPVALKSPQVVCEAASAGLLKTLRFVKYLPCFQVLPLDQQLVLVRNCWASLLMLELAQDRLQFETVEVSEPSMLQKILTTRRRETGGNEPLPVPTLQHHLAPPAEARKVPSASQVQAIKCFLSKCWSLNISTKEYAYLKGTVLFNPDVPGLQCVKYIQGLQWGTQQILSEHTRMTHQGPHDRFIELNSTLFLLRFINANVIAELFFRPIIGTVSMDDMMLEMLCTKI

[29] = tested on: INS1; test: suppression of cytokine-induced beta-cell apoptosis – INS-1E, caspase luminescence, dry powder, beta-cell apoptosis inhibitor project, dose response (AID 488848); format: functional, cell-based; settings: Rattus norvegicus
[30] = target: Keap1/Nrf2 (Homo sapiens, UniProt Q14145); test: disruptors of Keap1 binding to Nrf2 peptide – biochemical, fluorescence polarization, cherry-picked samples, dose response (AID 588683)
[31] = target: Cytochrome P450 2D6 (Homo sapiens, UniProt P10635);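 further: CYP2D6 member of a cytochrome P450 panel assay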
[32] = target: T1, Cytochrome P450 1A2; remark: listed apart in the source
[33] = target: Troponin, cardiac muscle (Homo sapiens, UniProt P19429+P45379+P63316); test: Fluorescence-based biochemical high throughput dose response assay for activators of the calcium sensitivity of cardiac Regulated Thin Filaments (RTF). [Related pubchem assays (depositor defined):AID493008, AID493018, AID504382, AID504383]; format: protein-complex assay

T2 sequence (P51452 whole entry): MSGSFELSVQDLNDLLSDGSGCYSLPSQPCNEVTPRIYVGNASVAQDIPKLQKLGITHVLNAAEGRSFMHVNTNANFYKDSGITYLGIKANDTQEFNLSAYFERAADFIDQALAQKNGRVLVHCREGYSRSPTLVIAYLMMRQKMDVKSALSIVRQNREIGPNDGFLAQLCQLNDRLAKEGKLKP
Chain of Hexokinase-1 (P19367 whole entry, the tested form may be a part): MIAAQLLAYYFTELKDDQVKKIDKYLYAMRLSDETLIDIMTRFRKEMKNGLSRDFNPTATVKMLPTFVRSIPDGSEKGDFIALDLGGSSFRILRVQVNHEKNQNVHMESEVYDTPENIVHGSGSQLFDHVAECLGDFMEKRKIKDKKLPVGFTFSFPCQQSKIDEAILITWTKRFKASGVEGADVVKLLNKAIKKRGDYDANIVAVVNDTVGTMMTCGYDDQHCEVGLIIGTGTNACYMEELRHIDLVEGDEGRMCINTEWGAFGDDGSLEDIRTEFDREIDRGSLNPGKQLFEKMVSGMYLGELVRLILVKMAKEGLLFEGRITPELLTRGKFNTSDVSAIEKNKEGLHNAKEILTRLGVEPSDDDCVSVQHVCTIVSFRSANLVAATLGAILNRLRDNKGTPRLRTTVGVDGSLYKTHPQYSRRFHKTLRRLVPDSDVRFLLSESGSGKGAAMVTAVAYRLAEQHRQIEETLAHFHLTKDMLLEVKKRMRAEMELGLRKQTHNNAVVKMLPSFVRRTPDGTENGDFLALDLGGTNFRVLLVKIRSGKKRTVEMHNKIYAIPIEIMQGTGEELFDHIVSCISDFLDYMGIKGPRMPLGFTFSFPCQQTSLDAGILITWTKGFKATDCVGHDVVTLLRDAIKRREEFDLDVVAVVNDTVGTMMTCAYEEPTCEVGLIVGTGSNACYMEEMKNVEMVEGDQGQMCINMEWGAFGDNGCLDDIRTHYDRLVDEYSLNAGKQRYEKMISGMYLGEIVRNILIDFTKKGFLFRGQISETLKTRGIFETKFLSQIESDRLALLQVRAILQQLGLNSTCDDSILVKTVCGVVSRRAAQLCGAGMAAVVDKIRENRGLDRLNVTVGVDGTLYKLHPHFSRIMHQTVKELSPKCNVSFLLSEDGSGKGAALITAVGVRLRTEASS
Chain of ATP-dependent molecular chaperone HSP82 (C4YTQ8 whole entry): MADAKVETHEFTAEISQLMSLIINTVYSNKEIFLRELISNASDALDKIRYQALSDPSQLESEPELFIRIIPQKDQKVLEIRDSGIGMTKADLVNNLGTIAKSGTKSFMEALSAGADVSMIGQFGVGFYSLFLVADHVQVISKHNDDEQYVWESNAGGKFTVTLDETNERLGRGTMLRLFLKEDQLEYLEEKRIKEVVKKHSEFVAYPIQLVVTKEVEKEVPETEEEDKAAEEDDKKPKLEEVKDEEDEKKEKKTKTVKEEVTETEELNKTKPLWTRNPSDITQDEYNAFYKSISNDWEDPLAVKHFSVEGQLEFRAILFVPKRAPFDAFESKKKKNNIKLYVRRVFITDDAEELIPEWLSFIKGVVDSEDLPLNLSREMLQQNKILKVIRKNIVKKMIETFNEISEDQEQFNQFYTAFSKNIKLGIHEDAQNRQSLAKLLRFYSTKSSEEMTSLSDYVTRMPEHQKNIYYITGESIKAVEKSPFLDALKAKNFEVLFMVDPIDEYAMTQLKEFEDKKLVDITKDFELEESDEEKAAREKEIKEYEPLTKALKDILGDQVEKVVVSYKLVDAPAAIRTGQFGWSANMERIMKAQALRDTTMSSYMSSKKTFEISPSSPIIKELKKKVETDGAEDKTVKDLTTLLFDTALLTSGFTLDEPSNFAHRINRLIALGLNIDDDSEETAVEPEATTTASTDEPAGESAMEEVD
Chain of Cytochrome P450 2C9 (P11712 whole entry): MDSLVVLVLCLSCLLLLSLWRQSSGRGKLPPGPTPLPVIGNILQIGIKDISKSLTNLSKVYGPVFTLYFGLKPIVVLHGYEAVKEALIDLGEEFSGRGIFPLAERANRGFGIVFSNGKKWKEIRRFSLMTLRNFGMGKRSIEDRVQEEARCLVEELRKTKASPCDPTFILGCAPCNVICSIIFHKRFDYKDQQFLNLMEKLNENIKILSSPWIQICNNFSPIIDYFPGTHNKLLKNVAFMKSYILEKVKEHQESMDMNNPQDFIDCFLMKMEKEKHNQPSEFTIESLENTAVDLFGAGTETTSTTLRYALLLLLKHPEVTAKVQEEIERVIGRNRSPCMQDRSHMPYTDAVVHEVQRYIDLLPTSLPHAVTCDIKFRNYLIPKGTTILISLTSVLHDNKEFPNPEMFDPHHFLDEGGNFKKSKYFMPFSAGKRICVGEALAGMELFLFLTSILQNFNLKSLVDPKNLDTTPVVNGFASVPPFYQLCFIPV
Chain of Tyrosine-protein phosphatase non-receptor type 7 (P35236 whole entry): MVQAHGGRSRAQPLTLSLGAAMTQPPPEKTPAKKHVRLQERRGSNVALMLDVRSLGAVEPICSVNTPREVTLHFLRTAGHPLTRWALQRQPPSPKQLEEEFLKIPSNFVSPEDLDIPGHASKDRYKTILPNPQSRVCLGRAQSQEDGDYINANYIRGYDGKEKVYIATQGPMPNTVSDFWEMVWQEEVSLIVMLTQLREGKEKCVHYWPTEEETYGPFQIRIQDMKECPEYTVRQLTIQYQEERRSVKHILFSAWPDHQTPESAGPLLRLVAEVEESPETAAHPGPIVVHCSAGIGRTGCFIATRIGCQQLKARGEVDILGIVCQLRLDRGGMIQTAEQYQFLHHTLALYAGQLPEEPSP
Chain of Dual specificity protein phosphatase 6 (Q64346 whole entry): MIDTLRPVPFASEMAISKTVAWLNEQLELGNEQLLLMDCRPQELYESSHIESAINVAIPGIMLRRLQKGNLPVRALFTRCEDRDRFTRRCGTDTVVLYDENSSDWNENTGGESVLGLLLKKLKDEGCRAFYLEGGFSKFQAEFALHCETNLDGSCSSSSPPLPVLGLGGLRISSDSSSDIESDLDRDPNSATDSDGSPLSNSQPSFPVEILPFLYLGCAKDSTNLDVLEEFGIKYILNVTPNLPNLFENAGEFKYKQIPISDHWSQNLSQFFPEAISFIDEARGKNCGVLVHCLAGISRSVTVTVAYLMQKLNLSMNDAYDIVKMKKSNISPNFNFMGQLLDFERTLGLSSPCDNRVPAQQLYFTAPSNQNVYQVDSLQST
Chain of Keap1/Nrf2 (Q16236 whole entry): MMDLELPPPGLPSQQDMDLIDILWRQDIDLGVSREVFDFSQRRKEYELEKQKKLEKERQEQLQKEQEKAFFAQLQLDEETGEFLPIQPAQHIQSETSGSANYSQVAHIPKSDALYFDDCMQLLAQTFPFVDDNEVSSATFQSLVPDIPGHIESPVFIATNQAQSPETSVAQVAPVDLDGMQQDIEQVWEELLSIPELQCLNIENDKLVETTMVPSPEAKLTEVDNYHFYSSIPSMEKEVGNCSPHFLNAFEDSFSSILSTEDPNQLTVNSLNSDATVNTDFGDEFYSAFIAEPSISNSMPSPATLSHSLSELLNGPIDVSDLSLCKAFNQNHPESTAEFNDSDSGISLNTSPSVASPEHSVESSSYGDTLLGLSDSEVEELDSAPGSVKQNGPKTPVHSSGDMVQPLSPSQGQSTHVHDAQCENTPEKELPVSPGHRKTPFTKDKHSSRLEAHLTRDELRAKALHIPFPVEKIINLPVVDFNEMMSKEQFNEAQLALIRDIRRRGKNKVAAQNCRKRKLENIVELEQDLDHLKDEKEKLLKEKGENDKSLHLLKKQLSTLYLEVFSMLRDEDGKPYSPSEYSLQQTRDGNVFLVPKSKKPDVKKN
Chain of Keap1/Nrf2 (Q14145 whole entry): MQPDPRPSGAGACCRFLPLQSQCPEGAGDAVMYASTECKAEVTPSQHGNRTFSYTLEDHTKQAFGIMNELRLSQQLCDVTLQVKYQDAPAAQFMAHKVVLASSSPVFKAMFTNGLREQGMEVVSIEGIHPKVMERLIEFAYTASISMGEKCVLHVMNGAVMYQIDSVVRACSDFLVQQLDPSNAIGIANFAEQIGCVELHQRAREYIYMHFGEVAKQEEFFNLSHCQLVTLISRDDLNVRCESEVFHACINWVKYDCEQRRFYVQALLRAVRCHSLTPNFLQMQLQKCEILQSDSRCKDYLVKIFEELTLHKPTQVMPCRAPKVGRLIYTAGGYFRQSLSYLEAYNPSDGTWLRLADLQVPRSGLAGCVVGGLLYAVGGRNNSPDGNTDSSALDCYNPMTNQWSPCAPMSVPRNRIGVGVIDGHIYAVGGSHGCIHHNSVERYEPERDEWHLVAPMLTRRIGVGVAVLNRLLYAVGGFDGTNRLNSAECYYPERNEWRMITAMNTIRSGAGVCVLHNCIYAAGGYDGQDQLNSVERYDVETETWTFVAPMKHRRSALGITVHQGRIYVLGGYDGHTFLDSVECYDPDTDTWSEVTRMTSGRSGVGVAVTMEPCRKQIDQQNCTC
Chain of Serine/threonine-protein phosphatase (B9W6M3 whole entry): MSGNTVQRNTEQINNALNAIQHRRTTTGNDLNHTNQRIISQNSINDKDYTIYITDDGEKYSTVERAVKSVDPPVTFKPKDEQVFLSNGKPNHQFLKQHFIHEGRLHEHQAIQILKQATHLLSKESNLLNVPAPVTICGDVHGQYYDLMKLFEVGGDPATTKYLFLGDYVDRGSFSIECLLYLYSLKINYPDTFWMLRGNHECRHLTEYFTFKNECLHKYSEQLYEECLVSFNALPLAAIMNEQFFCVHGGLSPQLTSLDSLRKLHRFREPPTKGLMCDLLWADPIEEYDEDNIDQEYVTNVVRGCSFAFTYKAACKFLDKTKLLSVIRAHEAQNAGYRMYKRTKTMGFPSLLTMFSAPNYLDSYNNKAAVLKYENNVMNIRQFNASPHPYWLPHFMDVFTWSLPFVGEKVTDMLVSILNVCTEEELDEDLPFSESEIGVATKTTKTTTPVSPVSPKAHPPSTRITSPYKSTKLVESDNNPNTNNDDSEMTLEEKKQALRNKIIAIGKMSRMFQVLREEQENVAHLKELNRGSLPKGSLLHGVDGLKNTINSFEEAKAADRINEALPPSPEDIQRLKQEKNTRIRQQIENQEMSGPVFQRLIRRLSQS

## Cc1nn(C(C)(C)C)c(C)c1/C=N/OC(=O)Nc1ccc(Cl)cc1
[1]
  EC50: < 0.1 µM (active)
[2]
  EC50: < 0.1 µM (active)
[3]
  EC50: 0.075 µM (active)
[4]
  EC50: 0.037 µM (active)
[5]
  EC50: 0.059 µM (active)
[6]
  IC50: > 80 µM (inactive)
[7]
  IC50: < 0.16 µM (active)
[8]
  EC50: < 0.1 µM (active)

## Cc1cccc(N2C(=O)/C(=C/c3cccnc3)SC2=S)c1
[9]
  AC50: 51.7 µM (active)

## CC(=O)N1CCC2(CC1)CN(c1ccncc1)C2
[10]
  AC50: inconclusive
[11]
  AC50: inconclusive

## CCOC(=O)C1=C(c2ccccc2)N=c2sc(=Cc3cc(OC)c(OC)c(OC)c3)c(=O)n2C1c1cccs1 (stereo not drawn)
[12]
  IC50: > 50 µM (inactive)
[13]
  IC50: > 50 µM (inactive)
[14]
  IC50: > 50 µM (inactive)
[15]
  IC50: > 50 µM (inactive)

## O=c1c2ccccc2nc(/C=C/c2ccc(Cl)cc2)n1Cc1ccccc1
[16]
  IC50: > 80 µM (inactive)
[17]
  IC50: > 80 µM (inactive)

## CC1CC(C)CN(CCOCCSc2ccccc2)C1 (stereo not drawn)
[18]
  EC50: 0.098 µM (active)
[19]
  EC50: 0.098 µM (active)
[20]
  EC50: > 195 µM (not active)

## O=C(c1ccccc1)N1CCN(c2ccccn2)CC1
[21]
  AC50: 184 µM (active)

## COc1cccc(C2CC(c3ccc(NS(C)(=O)=O)cc3)=NN2C(=O)c2ccccc2)c1OC (stereo not drawn)
[22]
  EC50: > 150 µM (inactive)
[23]
  EC50: > 180 µM (inactive)
[24]
  EC50: > 150 µM (inactive)
[25]
  EC50: 1.17 µM (active)

## O=C(Nc1ccc2c(c1)CCC2)c1ccccc1Br
[26]
  AC50: 8.42 µM (active)
[27]
  IC50: > 67.6 µM (inactive)
[28]
  IC50: > 67.6 µM (inactive)

## COc1ccc(S(=O)(=O)N(C)C[C@@H]2Oc3c(NC(=O)Nc4cccc5c4CCCC5)cccc3C(=O)N([C@@H](C)CO)C[C@H]2C)cc1
[29]
  AC50: 52.3 µM (active)

## CN1CCC2(CC1)C1CN(C)CC=C1C(C#N)=C(N)C2(C#N)C#N (stereo not drawn)
[30]
  AC50: > 52 µM (inactive)
[31]
  AC50: 14.1 µM (inconclusive)
[32]
  AC50: 20 µM (inconclusive)
[33]
  EC50: 9 µM (active)
